{"source": "ChEMBL document CHEMBL1201862", "about": "“PubChem BioAssay data set” (2004)", "key": {"[1]": {"assay": "IGROV1 ovarian cancer cell cytotoxicity, dose response, PAX8 inhibitor project, plate reader, dry powder samples (AID 743043)", "type": "functional, cell-based", "details": "IGROV-1"}, "Paired box protein Pax-8": {"molecular_target": "Paired box protein Pax-8 (Homo sapiens, UniProt Q06710)", "sequence (Q06710 whole entry)": "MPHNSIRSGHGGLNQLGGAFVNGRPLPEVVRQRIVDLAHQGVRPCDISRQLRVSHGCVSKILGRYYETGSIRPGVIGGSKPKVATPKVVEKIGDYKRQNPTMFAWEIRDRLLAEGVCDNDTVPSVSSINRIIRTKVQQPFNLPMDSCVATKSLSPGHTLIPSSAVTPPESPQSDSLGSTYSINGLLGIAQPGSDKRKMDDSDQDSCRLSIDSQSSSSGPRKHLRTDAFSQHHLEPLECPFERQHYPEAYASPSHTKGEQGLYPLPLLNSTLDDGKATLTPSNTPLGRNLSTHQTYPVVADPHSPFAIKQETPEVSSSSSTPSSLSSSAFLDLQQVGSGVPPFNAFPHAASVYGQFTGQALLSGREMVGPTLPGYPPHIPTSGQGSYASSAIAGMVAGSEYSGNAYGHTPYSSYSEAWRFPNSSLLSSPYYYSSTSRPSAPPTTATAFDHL", "assay": "inhibitors of PAX8-driven TPO luciferase reporter, dose response, RMG-I cells, cherry-pick (AID 687027)", "type": "functional, cell-based"}, "[2]": {"assay": "NIH:OVCAR-3 ovarian cancer cell cytotoxicity, dose response, PAX8 inhibitor project, plate reader, dry powder samples (AID 743044)", "type": "functional, cell-based"}, "[3]": {"assay": "cytotoxicity in OVCAR8 ovarian cancer cells, dose response, PAX8 project, cell-based, plate reader, dry powder samples (AID 743197)", "type": "functional", "details": "OVCAR-8"}, "[4]": {"assay": "YAP1 pathway inhibition via CTGF transcript levels, dose response, cell-based, DLD1 colon cancer, RT-qPCR, cherry-pick (AID 1053122)", "type": "functional", "details": "Cancer cell lines"}, "[5]": {"assay": "inhibitors of HIV Env-driven cell fusion, dose response, cherry-pick (AID 652057)", "type": "functional, cell-based"}, "[6]": {"assay": "inhibitors of clade B AD8 Env fusion, dose response, cell-based, cherry-pick (AID 652062);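 also: potency is for inhibitors of fusion seen as a drop in luminescence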", "type": "functional"}, "[7]": {"assay": "P. falciparum Dd2 growth inhibitors, dose response, SYBR Green, cherry-picked samples (AID 1159567)", "type": "functional, cell-based"}, "[8]": {"assay": "HEK293T cell cytotoxicity, dose response, cytotoxicity control, luminescence plate reader, powder samples, set 4 (AID 651863)", "type": "functional, cell-based", "details": "HEK293"}, "[9]": {"molecular_target": "Metabotropic glutamate receptor 5 (Rattus norvegicus, UniProt P31424)", "sequence (P31424 whole entry)": "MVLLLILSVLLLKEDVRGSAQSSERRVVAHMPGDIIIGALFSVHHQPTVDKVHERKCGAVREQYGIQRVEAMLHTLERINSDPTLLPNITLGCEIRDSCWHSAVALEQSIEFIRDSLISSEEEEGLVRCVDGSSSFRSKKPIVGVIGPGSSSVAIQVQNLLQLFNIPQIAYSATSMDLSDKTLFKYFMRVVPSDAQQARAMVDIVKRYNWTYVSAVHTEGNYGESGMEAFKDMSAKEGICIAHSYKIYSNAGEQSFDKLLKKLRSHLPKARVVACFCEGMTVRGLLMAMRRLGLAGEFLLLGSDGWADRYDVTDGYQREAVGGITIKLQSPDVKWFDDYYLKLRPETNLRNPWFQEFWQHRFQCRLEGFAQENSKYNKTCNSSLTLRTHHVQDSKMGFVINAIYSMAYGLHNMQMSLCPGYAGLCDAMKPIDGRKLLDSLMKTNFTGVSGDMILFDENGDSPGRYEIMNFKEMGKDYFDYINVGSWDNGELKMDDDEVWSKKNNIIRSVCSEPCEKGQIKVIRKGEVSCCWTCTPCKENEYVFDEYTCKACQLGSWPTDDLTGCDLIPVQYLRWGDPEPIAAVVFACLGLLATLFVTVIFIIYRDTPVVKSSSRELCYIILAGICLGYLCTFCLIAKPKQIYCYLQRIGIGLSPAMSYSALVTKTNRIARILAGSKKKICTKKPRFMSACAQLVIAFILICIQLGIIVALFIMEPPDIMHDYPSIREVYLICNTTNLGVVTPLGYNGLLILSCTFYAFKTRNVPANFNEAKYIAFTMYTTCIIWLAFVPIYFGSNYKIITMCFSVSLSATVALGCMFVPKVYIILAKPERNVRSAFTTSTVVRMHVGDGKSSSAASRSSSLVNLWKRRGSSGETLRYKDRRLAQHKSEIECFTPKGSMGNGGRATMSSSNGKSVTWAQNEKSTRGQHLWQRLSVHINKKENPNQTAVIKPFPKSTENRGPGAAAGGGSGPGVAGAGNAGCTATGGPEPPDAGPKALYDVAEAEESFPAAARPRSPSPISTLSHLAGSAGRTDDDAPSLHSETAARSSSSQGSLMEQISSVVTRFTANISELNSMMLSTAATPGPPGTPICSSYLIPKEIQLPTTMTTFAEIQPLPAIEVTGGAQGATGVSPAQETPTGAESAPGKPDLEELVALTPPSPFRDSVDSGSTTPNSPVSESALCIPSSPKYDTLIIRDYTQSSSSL", "assay": "Identification of a glycine sulfonamide based non-MPEP site positive allosteric potentiator (PAM) of mGlu5 (calcium_assay).", "type": "functional"}, "[10]": {"assay": "HeLa cell cytotoxicity, dose response, cytotoxicity control, 24 h, plate reader, dry powder (AID 686928)", "type": "functional, cell-based"}, "[11]": {"assay": "MITF Orthogonal Assay: SK-MEL-5 CTG Assay Measured in Cell-Based System Using Plate Reader - 2084-02_Inhibitor_Dose_DryPowder_Activity_Set7.", "type": "functional"}, "[12]": {"assay": "MITF: Counter assay: A375 proliferation Measured in Cell-Based System Using Plate Reader - 2084-03_Inhibitor_Dose_DryPowder_Activity_Set8.", "type": "functional", "details": "A-375"}, "[13]": {"assay": "TRPM1 promoter luciferase reporter signal decrease, dose response, MITF inhibitor project, cell-based, SK-MEL-5, dry powder, set 8 (AID 624430)", "type": "functional"}, "Protein Wnt-3a": {"molecular_target": "Protein Wnt-3a (Mus musculus, UniProt P27467)", "sequence (P27467 whole entry)": "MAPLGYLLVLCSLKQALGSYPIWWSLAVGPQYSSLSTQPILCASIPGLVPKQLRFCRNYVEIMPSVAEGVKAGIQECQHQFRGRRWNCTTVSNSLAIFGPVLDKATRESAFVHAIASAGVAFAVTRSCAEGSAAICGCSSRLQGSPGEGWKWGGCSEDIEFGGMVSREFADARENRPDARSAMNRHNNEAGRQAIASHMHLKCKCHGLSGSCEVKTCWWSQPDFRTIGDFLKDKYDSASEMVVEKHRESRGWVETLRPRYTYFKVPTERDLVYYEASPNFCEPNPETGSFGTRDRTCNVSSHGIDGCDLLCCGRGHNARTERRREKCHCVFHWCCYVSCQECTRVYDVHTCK", "assay": "SAR analysis of small molecule antagonists of Gli-SUFU in a Wnt3a luminescent reporter assay.", "type": "functional"}, "[14]": {"assay": "A549 cell cytotoxicity, dose response, cytotoxicity control, plate reader, cherry-pick, antagonist series (AID 743412)", "type": "functional, cell-based"}, "[15]": {"assay": "LGR2 antagonists, dose response, cell-based, HEK293, CRE-luciferase reporter, cherry pick (AID 743342)", "type": "functional"}, "[16]": {"assay": "T. cruzi growth inhibition in host cells, dose response, cell-based, plate reader, dry powder, set 2 (AID 652275)", "type": "functional"}}, "note": "The source made the active and inactive calls.", "data": [{"smiles": "C[C@@H]1CN([C@@H](C)CO)C(=O)Cc2cc(NS(=O)(=O)c3ccc(Cl)cc3)ccc2O[C@H]1CN(C)Cc1ccc(Oc2ccccc2)cc1", "values": [{"measurement": "AC50", "setting": "[1]", "result": "25.9 µM (active)"}, {"measurement": "AC50", "setting": "Paired box protein Pax-8", "result": "6.27 µM (active)"}, {"measurement": "AC50", "setting": "[2]", "result": "22.5 µM (active)"}, {"measurement": "AC50", "setting": "[3]", "result": "26.7 µM (active)"}]}, {"smiles": "N#C[C@@H]1[C@H](c2ccc(-c3cccc(F)c3)cc2)[C@H](CO)N1C(=O)NC1CCCC1", "values": [{"measurement": "AC50", "setting": "[4]", "result": "> 26 µM (inactive)"}, {"measurement": "AC50", "setting": "[5]", "result": "39.5 µM (active)"}, {"measurement": "AC50", "setting": "[6]", "result": "0.768 µM (active)"}, {"measurement": "AC50", "setting": "[7]", "result": "2.84 µM (active)"}]}, {"smiles": "COC(=O)[C@@H]1CCCC[C@@H]1C(=O)N1CCc2ccccc2[C@H]1CN1C(=O)c2ccccc2C1=O", "values": [{"measurement": "AC50", "setting": "[8]", "result": "> 52 µM (inactive)"}]}, {"smiles": "CS(=O)(=O)N(CC(=O)NCC(F)(F)F)c1ccccc1Cl", "values": [{"measurement": "EC50", "setting": "[9]", "result": "10 µM (inconclusive)"}]}, {"smiles": "CCCCCCCCCC(=O)[C@@H](O)CC.CCCCCCCCCC(=O)[C@H](O)CC", "values": [{"measurement": "AC50", "setting": "[10]", "result": "> 200 µM (inactive)"}]}, {"smiles": "CC(C)N1CCN(C2=C(Nc3cccc(Br)c3)C(=O)c3ccccc3C2=O)CC1", "values": [{"measurement": "AC50", "setting": "[11]", "result": "11.5 µM (active)"}, {"measurement": "AC50", "setting": "[12]", "result": "48.5 µM (active)"}, {"measurement": "AC50", "setting": "[13]", "result": "2.52 µM (active)"}]}, {"smiles": "CCN(CC)c1cc(NC(=O)c2ccccc2F)ncn1", "values": [{"measurement": "IC50", "setting": "Protein Wnt-3a", "result": "0.172 µM (active)"}]}, {"smiles": "C[C@H](CO)N1C[C@H](C)[C@H](CN(C)C(=O)Nc2ccccc2)OCCCC[C@H](C)Oc2ccc(NC(=O)C3CCCCC3)cc2C1=O", "values": [{"measurement": "AC50", "setting": "[14]", "result": "39.5 µM (active)"}, {"measurement": "AC50", "setting": "[15]", "result": "3.87 µM (active)"}]}, {"smiles": "CN(C)CC#Cc1cccc(-c2nc(C(=O)NCc3ccc(Oc4ccccc4)cc3)cc3c2[C@H](CCO)N([S+]([O-])C(C)(C)C)C3)c1", "note": "(stereo partly drawn)", "values": [{"measurement": "AC50", "setting": "[16]", "result": "0.746 µM (active)"}]}]}
